Here are results for 14 compounds from publication PMC6470642, “Phenalenones from a Marine-Derived Fungus Penicillium sp” (Marine Drugs, 2019).

Like-named read-outs stand apart in the source and are kept apart here.

One series can be described thus: cytotoxicity assay, K562. The series is classed as cell-based. Particulars: human, K562 cells. How it is done:
(§1) The cytotoxicity assay was performed in accordance with the published protocols. The antimicrobial assay was performed according to the method described previously.

A short description of a further series: cytotoxicity assay, A549. The series is classed as cell-based. Particulars: human, A549 cells. The procedure: as §1
In the next series the test system is RAW 264.7 cells. Put plainly: iNOS assay: inhibition of LPS-stimulated NO production (Griess reaction). The series is classed as cell-based, mouse. Particulars: 18 h. How it is done:
Mouse macrophage RAW 264.7 cells obtained from the American Type Culture Collection (ATCC, Rockville, MD, USA) were cultured in Dulbecco’s modified Eagle’s medium (DMEM) supplemented with 10% heat-inactivated fetal bovine serum (FBS) with antibiotics-antimycotics (PSF; 100 units/mL penicillin G sodium, […] streptomycin, and 250 ng/mL amphotericin B). The cells were seeded in 24-well plates (2 × 10^5 cells/mL). The next day, the culture media was changed to 1% FBS-DMEM, and the samples were treated with the test compounds. After pretreatment with the drug for 1 h, 1 μg/mL lipopolysaccharides (LPS) was added to stimulate NO production. The cells were incubated for an additional 18 h, and the amount of NO produced in the supernatant was determined by Griess reaction. Then, the absorbance was measured at 540 nm, and the nitrite concentration was determined by comparison with a sodium nitrite standard curve. The percent inhibition was calculated using the following formula: [1 − (NO level of test samples/NO levels of vehicle-treated control)] × 100. The IC50 values were calculated through nonlinear regression analysis using TableCurve 2-D v5.01 (Systat Software Inc., San Jose, CA, USA). At the same time, MTT assays were also performed to test cell viability. MTT solution (final concentration of 500 μg/mL) was added to the cells, and they were incubated for 4 h at 37 °C. The culture media was removed, and the remaining dyes were dissolved in DMSO. The absorbance of each well was measured at 570 nm using a VersaMax ELISA microplate reader (Molecular Devices, Sunnyvale, CA, USA). The percent survival was determined by comparison with a control group (LPS+).
Figure S54. Inhibition of NO production of herqueinone compounds purified from Penicillium herquei. The effects of compounds on NO production in RAW 264.7 cells. (A) Cells were pre-treated with compounds (20 uM) and AMT (0.2 uM) for 1 h and LPS (1 ug/mL ) was added further incubated for 18 h . The amount of iNOS was examined by Griess reaction. (B) After iNOS level was measured, cell viability was tested using MTT assay. The values are expressed as the means ± SD of triplicate tests. (C) RAW 264.7 cells were pretreated with various concentrations of compound 7 and AMT (0.2 uM) for 1 h, and LPS (1 ug/mL) was added further incubated for 18 h. The amount of iNOS was examined b y Griess reaction. (D) Cell viability was tested by MTT assay. The values are expressed as the means ± SD of triplicate tests.

The next series deals with HUVECs. Put plainly: VEGF-induced tube formation assay (angiogenesis). The series is classed as cell-based, human. Particulars: VEGF 50 ng/mL, 6 h, read-out: IC50, inhibition of tube formation. How it is done: Human umbilical vascular endothelial cells (HUVECs) were purchased from the American Type Culture Collection (ATCC, Rockville, MD, USA), and cultured in EGM-2 (Lonza, Walkerswille, MD, USA) supplemented with 10% FBS and antibiotics-antimycotics (PSF). The cells were maintained at 37 °C under a humidified atmosphere containing 5% CO2. A 96-well plate was coated with Matrigel (Corning) for 30 min at 37 °C under a humidified atmosphere containing 5% CO2. HUVECs (1.8 × 10^4 cells/well) were mixed with the test compounds in 0.5% FBS EBM-2 medium with VEGF (50 ng/mL) or 0.5% FBS EBM-2 medium only for the VEGF negative control. The cells were incubated for 6 h and photographed using an inverted microscope (Olympus Optical Co. Ltd., Tokyo, Japan). Images were quantified with an angiogenesis analyzer using ImageJ software. Tube formation activity was calculated using the following formula: [(Total segment # (tested compound) − Total segment # (VEGF−)]/[Total segment # (VEGF+) − Total segment # (VEGF−)] × 100 (# stands for tubule segment number). The IC50 values were calculated through nonlinear regression analysis using TableCurve 2-D v5.01 (Systat Software Inc., San Jose, CA, USA). Cell viabilities were evaluated with the MTT assay. HUVECs (0.8 × 10^4 cells/well) were seeded into a 96-well plate and indicated for 1 day. The culture medium was replaced with serum-free medium, and the cells were incubated overnight. After starvation, the cells were treated with the test compounds and VEGF (50 ng/mL) in 2% FBS EBM-2 medium. Cells were incubated for a further 24 h, and MTT solution (final concentration of 500 μg/mL) was added to the cells to measure the cell viability. The formazan products were dissolved in DMSO. The absorbance of each well was measured at 570 nm using a VersaMax ELISA microplate reader (Molecular Devices, Sunnyvale, CA, USA).
Figure S55. Angiogenesis activities of herqueinone compounds purified from Penicillium herquei. Effects of 6 on VEGF-induced tube formation and cell viability. Tube formation activity was measured after cells were incubated with indicated concentrations of 6 on matrigel-coated 96wells for 6 h in the presence of VEGF (50 ng/mL) compared to control in the absence of VEGF. Cell viability was measured by MTT assay after treat with indicated concentrations of 6 in the presence of VEGF (50 ng/mL) for 24 h. The values are expressed as the means ± SD of triplicate tests. * p ≤ 0.05, ** p ≤ 0.01 and *** p ≤ 0.001.

The test system of the next series is hBM-MSCs. Put plainly: adiponectin production assay during adipogenesis (ELISA). The series is classed as cell-based. Particulars: Homo sapiens. How it is done:
Human bone marrow-mesenchymal stem cells (hBM-MSCs) were purchased from Lonza, Inc. (Walkersville, MD, USA) and cultured in low-glucose (1 g/L) DMEM supplemented with 10% FBS, penicillin-streptomycin, and Glutamax^TM (Invitrogen, Carlsbad, CA, USA). To induce adipogenesis, the cell growth medium was replaced with high-glucose (4.5 g/L) DMEM supplemented with 10% FBS, penicillin-streptomycin, 10 μg/mL insulin, 0.5 μM dexamethasone, and 0.5 mM 3-isobutyl-1-methylxanthine (IBMX) (IDX conditions). IBMX, pioglitazone, and aspirin were purchased from Sigma-Aldrich (St. Louis, MO, USA). hBM-MSCs were stained with 0.2% oil red O (ORO) reagent for 10 min at 24 °C, and then washed with H2O four times. Following a 10-min elution with isopropanol, the absorbance was measured at 500 nm using a spectrophotometer. To visualize the nucleus, the hBM-MSCs were counterstained with hematoxylin reagent for 2 min and then washed twice with H2O. The level of adipocyte differentiation was observed and counted using an inverted phase microscope. A Quantikine immunoassay kit (R&D Systems, Minneapolis, MN, USA) was used for quantitative determination of adiponectin in the cell culture supernatants.
Figure S56. PPARγ binding and adiponectin secretion -promoting activities of herqueinone compounds purified from Penicillium herquei. (A) TR-FRET based competitive PPARγ binding assays were performed for herqueinone compounds 1-11. (B) Ki values for compounds 1, 3, 4, 7, 8 and 9 were calculated based on the Cheng and Prusoff analysis. (C) Herqueinone compounds were added to the IDX condition when adipogenesis was induced in hBM-MSCs. On the fifth day, the cell culture supernatants were harvested.
ELISA was performed to measure the level of adiponectin. Positive controls were pioglitazone and aspirin.
(D) The concentration dependency of herqueinone compounds 1, and 9 on adiponectin secretion-promoting activity was determined. Values represent means ± SD (n=3); * p ≤ 0.05 and ** p ≤ 0.01.
(1 picture or pasted object on this page, not shown here)
(In general: In an ELISA, binding on a coated surface is turned into a signal by an enzyme label.)

Where [1] appears, read: Mus musculus, RAW264.7, LPS 1 μg/mL.
[2] abbreviates: IDX conditions, read-out: IC50 values, adiponectin secretion-promoting effects.
The mark [3] stands for this setting: adiponectin secretion, Table S1, read-out: EC50 hBM-MSC(B7).

As to `CC(=O)CC1(O)C(=O)C2=c3c(c(O)cc(C)c3=C3O[C@H](C)C(C)(C)[C@]3(O)C2=O)C1=O` (single isomer, unassigned) [Compound 4, Oxopropylisoherqueinone A], the IC50 in “cytotoxicity assay, K562” was > 10 µM; in the series “cytotoxicity assay, A549” it was > 10 µM; in the series with RAW 264.7 cells (setting [1]), > 20 µM; with HUVECs (Homo sapiens, HUVEC) it was > 40 µM.

For `CC1CCN=C(N)S1` (stereo not shown) [AMT, reference compound], half-maximal inhibition in the series on RAW 264.7 cells (LPS 1 μg/mL) (IC50) was put at 0.2 µM.

As for `COc1c(O)c2c3c(c1O)C(=O)[C@@]1(O)C(=C3C(C)=C(O)C2=O)O[C@@H](C)C1(C)C` [Compound 1, ent-Peniciherqueinone], the IC50 in “cytotoxicity assay, K562” is > 10 µM; in “cytotoxicity assay, A549”, > 10 µM; with RAW 264.7 cells (setting [1]) it was > 20 µM; in the series on HUVECs (Homo sapiens, HUVEC) it was > 40 µM. In addition, the EC50 with hBM-MSCs (setting [2]) and in the series with hBM-MSCs (setting [3]) was 57.5 µM each time.

Take `CC1=C(O)C(=O)c2c(O)c(O)c(O)c3c2C1=C1O[C@@H](C)C(C)(C)[C@@]1(O)C3=O` [Compound 2, 12-Hydroxynorherqueinone]: the IC50 in “cytotoxicity assay, K562” is > 10 µM; in “cytotoxicity assay, A549” it was > 10 µM; in the series with RAW 264.7 cells (setting [1]), > 20 µM; with HUVECs (Homo sapiens, HUVEC), > 40 µM.

For the compound `COc1c(O)c2c3c(c1O)C(=O)[C@]1(O)C(=C3C(C)=CC2=O)O[C@H](C)C1(C)C` [Compound 3, ent-Isoherqueinone], the IC50 in “cytotoxicity assay, K562” was > 10 µM; in the series “cytotoxicity assay, A549”, > 10 µM; in the series with RAW 264.7 cells (setting [1]), > 20 µM; in the series with HUVECs (Homo sapiens, HUVEC), > 40 µM.

In the case of `CC(=O)CC1(O)C(=O)C2=c3c(c(O)cc(C)c3=C3O[C@H](C)C(C)(C)[C@]3(O)C2=O)C1=O` (stereo partly shown) [Compound 5, Oxopropylisoherqueinone B], the IC50 is > 20 µM in the series with RAW 264.7 cells (LPS 1 μg/mL) and > 40 µM with HUVECs.

Consider `Cc1cc(O)c2c3c1=C1O[C@@H](C)C(C)(C)[C@@]1(O)C(=O)C=3C(=O)OC2=O` [Compound 6, 4-Hydroxysclerodin], for which the 50% inhibitory concentration (IC50) is > 10 µM in the series “cytotoxicity assay, K562”; > 10 µM in the series “cytotoxicity assay, A549”; > 20 µM with RAW 264.7 cells (setting [1]); 20.9 µM with HUVECs (Homo sapiens, HUVEC).

In the case of `CC(=O)CC1(O)C(=O)c2c(O)cc(C)c3c4c(c(O)c(c23)C1=O)C(C)(C)[C@@H](C)O4` (stereo partly shown) [Compound 7, acetone adduct of the triketone], the IC50 is > 10 µM in the series “cytotoxicity assay, K562”; > 10 µM in the series “cytotoxicity assay, A549”; 3.2 µM in the series on RAW 264.7 cells (setting [1]); > 40 µM in the series on HUVECs (Homo sapiens, HUVEC).

As to `COc1c(O)c2c3c(c1O)C(=O)[C@@]1(O)C(=C3C(C)=CC2=O)O[C@H](C)C1(C)C` [Compound 8, herqueinone], the IC50 in the series “cytotoxicity assay, K562” was > 10 µM; in “cytotoxicity assay, A549”, > 10 µM; in the series with RAW 264.7 cells (setting [1]), > 20 µM; with HUVECs (Homo sapiens, HUVEC), > 40 µM.

`COc1c(O)c2c3c(c1O)C(=O)[C@@]1(O)C(=C3C(C)=CC2=O)O[C@@H](C)C1(C)C` [Compound 9, isoherqueinone]: the IC50 is > 10 µM in the series “cytotoxicity assay, K562”; > 10 µM in “cytotoxicity assay, A549”; > 20 µM with RAW 264.7 cells (setting [1]); > 40 µM in the series with HUVECs (Homo sapiens, HUVEC). The EC50 in the series with hBM-MSCs (setting [2]) and in the series on hBM-MSCs (setting [3]) was 39.7 µM in each case.

`Cc1cc(O)c2c3c(c(O)c4c(c13)O[C@@H](C)C4(C)C)C(=O)OC2=O` [Compound 10, sclerodin]: the half-maximal inhibitory concentration (IC50) is > 10 µM in “cytotoxicity assay, K562”; > 10 µM in “cytotoxicity assay, A549”; > 20 µM in the series with RAW 264.7 cells (setting [1]); > 40 µM in the series with HUVECs (Homo sapiens, HUVEC).

With `Cc1cc(O)c2c3c(c(O)c4c(c13)O[C@@H](C)C4(C)C)C(=O)C(=O)O2` [Compound 11, scleroderolide], the IC50 in “cytotoxicity assay, K562” is > 10 µM; in the series “cytotoxicity assay, A549” it was > 10 µM; in the series with RAW 264.7 cells (setting [1]), > 20 µM; in the series with HUVECs (Homo sapiens, HUVEC) it was > 40 µM.

Take `CCc1ccc(CCOc2ccc(CC3SC(=O)NC3=O)cc2)nc1` (stereo not shown) [Pioglitazone, pioglitazone, reference compound]: in the series on hBM-MSCs (setting [3]), the EC50 is 0.69 µM.

Turning to `CCN(CC)CCNC(=O)c1c(C)[nH]c(/C=C2\C(=O)Nc3ccc(F)cc32)c1C` [Sunitinib, reference compound], the IC50 with HUVECs (Homo sapiens, HUVEC) was determined as 1.5 µM.

The IC50 is the concentration needed to halve the response being measured.
